According to US20200199541A1, “BLOOD VESSEL ORGANOID, METHODS OF PRODUCING AND USING SAID ORGANOIDS” (IMBA - INSTITUT FÜR MOLEKULARE BIOTECHNOLOGIE GMBH, priority 2017, published 2020):
Entries after “also recorded” stand apart in the source; their conditions may differ.

How the values were obtained:
[1] = test system: human vascular organoid transplants; assay: Human CD31+ blood vessel density of vascular organoid transplants in diabetic STZ mice; type: in vivo, mouse; details: diabetic STZ NSG mice, DAPT 5 mg/kg
Experimental: (§1) Modeling diabetic vasculopathy in human vascular organoids in vivo. Immunodeficient NSG mice carrying human vascular organoid transplants were daily i.p. injected with 40 mg/kg Streptozotocin (STZ) (Merck, 572201) for 5 consecutive days. Every day, STZ was freshly dissolved in citrate buffer (pH4.6) and immediately used. Diabetes was confirmed (blood glucose >300 mg/dL) by measuring non-fasting glucose using the OneTouch UltraEasy system (Lifetouch, AW 06637502C). DAPT (Selleckchem 52215) was dissolved in ethanol and injected with 90% cornoil for 5 consecutive days at 5 mg/kg with 2 days of no treatment per week. Anti-Notch3 blocking antibodies (R&D AF1559) were injected 3 time/week at lmg/kg. For quantifying vessel leakage, the FITC-Dextran^+ area was measured and normalized to the area of perfused human blood vessels (hCD31^+) using the FIJI software. This ratio was then further normalized to control non-diabetic mice. Permeability of long-term DAPT treated vessels were measured after 2 days of treatment stop to avoid measuring acute effects of DAPT on vessel permeability.

[2] = test system: human blood vessel organoids; assay: Diabetic basement membrane thickening (Collagen IV) in human blood vessel organoids cultured in diabetic medium; type: cell-based; details: for high glucose/TNFα/IL6-induced thickening of the basal blood vessel membrane (Collagen IV): diabetic medium 75 mM Glucose, 1 ng/mL TNFα, 1 ng/mL IL-6, drug doses (DAPT 25 μM); for increase of Col IV+ basement membrane under diabetic conditions: 75 mM Glucose, 1 ng/mL IL-6, 1 ng/mL TNF-α, 10 μM RO4929097, 1 μM Dehydroxy-LY411575, 1 μM LY411575; for diabetic basement membrane thickening (Col IV) on blocking Notch pathway members: 2 weeks diabetic media (hyperglycemia + IL-6 + TNF-a), blocking antibodies or non-crosslinked recombinant proteins
Experimental: Modeling diabetic vasculopathy in human vascular organoids. Established endothelial networks in vascular organoids were cultured in a non-diabetic control medium (17 mM Glucose) or diabetic medium (75 mM Glucose, in the presence of absence of human TNFα (1 ng/mL, Invitrogen PHC3011) and/or IL-6 (1 ng/mL, Peprotech 200-06)) for up to 3 weeks before the basement membrane was investigated by Collagen type IV immunostaining and electron microscopy. D-Mannitol was used in non-diabetic media to control for hyperosmotic effects. For basement membrane quantifications, acquired z-stacks were analysed and the thickness of ColIV coats around luminal structures were measured using ImageJ software. For drug treatment, organoids were exposed to diabetic medium (75 mM Glucose, 1 ng/mL human TNFα, and 1 ng/mL IL-6) in the presence or absence of the following drugs: 2,4-Thiazolidinedione (5 mM, Abcam ab144811), Metformin (5 mM, Abcam ab120847), Acarbose (80 μg/mL, Sigma A8980), […] (100 μM, Sigma N3538), Diphenyleneiodonium (10 μM), Glimepiride (30 nM, Sigma G2295), Pioglitazone (10 μM, Sigma E6910). The following small molecule inhibitors were used: N-Acetyl-L-cysteine (500 μM, Sigma, A7250), CHIR99021 (10 μM, Tocris 4423), Goe6976 (100nM, Merck U51365250), MK2206 (10 μM, EubioS1078), QNZ (10 μM, Eubio […]), 5B203580 (10 μM, Eubio […]), SCH772984 (500 nM, Eubio […], Calbiochem 688000), DAPT (25 μM, Sigma D5942), 5B431542 (10 μM, Abcam ab120163).

[3] = test system: human blood vessel organoids; assay: as above; type: cell-based; details: diabetic cocktail, indicated DAPT doses (FIG. 5)
[4] = test system: human vascular organoid transplants; assay: Vessel leakage (FITC-Dextran extravasation) of human vascular organoid transplants in diabetic STZ mice; type: in vivo, mouse; details: diabetic STZ NSG mice, DAPT 5 mg/kg
Experimental: as §1

C[C@H](NC(=O)Cc1cc(F)cc(F)c1)C(=O)N[C@H](C(=O)OC(C)(C)C)c1ccccc1 [DAPT]
human blood vessel (CD31+) density in transplanted vascular organoids [1]: restores human vessel density; also recorded: rescued the loss of CD31^+ human blood vessels
high glucose/TNFα/IL6-induced thickening of the basal blood vessel membrane (Collagen IV) [2]: abrogates thickening of the vascular basement membrane; also recorded: can prevent diabetic vascular basement membrane thickening; also recorded: completely abrogated the expansion of collagen IV and basal membrane thickening; also recorded: nearly completely prevented the thickening of the basal membrane
dose dependence of prevention of basement membrane thickening (ColIV thickness) [3]: dose dependent; also recorded: dose-dependent
vessel permeability / leakage (FITC-Dextran extravasation) [4]: normalized diabetic vessel permeability; also recorded: excessive blood vessel leakiness was rescued

CC(C)(C(=O)NCC(F)(F)C(F)(F)F)C(=O)N[C@@H]1C(=O)Nc2ccccc2-c2ccccc21 [RO4929097]
increase of Col IV+ basement membrane under diabetic conditions [2]: prevent the increase of basement membrane (Col IV) under diabetic conditions

CC(C)[C@H]1CC[C@H](C(=O)N[C@H](Cc2ccccc2)C(=O)O)CC1 [nateglindine, Nateglindine]
high glucose/TNFα/IL6-induced thickening of the basal blood vessel membrane (Collagen IV) [2]: none of the medicines that we tested

c1ccc2c(c1)[I+]c1ccccc1-2 [diphenyleneiodonium, Diphenyleneiodonium]
high glucose/TNFα/IL6-induced thickening of the basal blood vessel membrane (Collagen IV) [2]: none of the medicines that we tested

CCC1=C(C)CN(C(=O)NCCc2ccc(S(=O)(=O)NC(=O)N[C@H]3CC[C@H](C)CC3)cc2)C1=O [glimepiride, Glimepiride]
high glucose/TNFα/IL6-induced thickening of the basal blood vessel membrane (Collagen IV) [2]: none of the medicines that we tested

O=C1CSC(=O)N1 [thiazolidinedione, 2,4-Thiazolidinedione]
high glucose/TNFα/IL6-induced thickening of the basal blood vessel membrane (Collagen IV) [2]: none of the medicines that we tested

C[C@H](NC(=O)Cc1cc(F)cc(F)c1)C(=O)N[C@@H]1C(=O)N(C)c2ccccc2-c2ccccc21 [Dehydroxy-LY411575]
increase of Col IV+ basement membrane under diabetic conditions [2]: prevent the increase of basement membrane (Col IV) under diabetic conditions

CN(C)C(=N)N=C(N)N [metformin, Metformin]
high glucose/TNFα/IL6-induced thickening of the basal blood vessel membrane (Collagen IV) [2]: none of the medicines that we tested

C[C@H](NC(=O)[C@@H](O)c1cc(F)cc(F)c1)C(=O)N[C@@H]1C(=O)N(C)c2ccccc2-c2ccccc21 [LY411575]
increase of Col IV+ basement membrane under diabetic conditions [2]: prevent the increase of basement membrane (Col IV) under diabetic conditions

D114: non-crosslinked recombinant protein (Notch ligand, Delta-like protein 4) used as blocker
diabetic basement membrane thickening (Col IV) on blocking Notch pathway members [2]: completely blocked basement membrane thickening

B1: D111: non-crosslinked recombinant protein (Notch ligand) used as blocker (protein, UniProt O00548 18-723, looked up)
Delta-like protein 1: QVWSSGVFELKLQEFVNKKGLLGNRNCCRGGAGPPPCACRTFFRVCLKHYQASVSPEPPCTYGSAVTPVLGVDSFSLPDGGGADSAFSNPIRFPFGFTWPGTFSLIIEALHTDSPDDLATENPERLISRLATQRHLTVGEEWSQDLHSSGRTDLKYSYRFVCDEHYYGEGCSVFCRPRDDAFGHFTCGERGEKVCNPGWKGPYCTEPICLPGCDEQHGFCDKPGECKCRVGWQGRYCDECIRYPGCLHGTCQQPWQCNCQEGWGGLFCNQDLNYCTHHKPCKNGATCTNTGQGSYTCSCRPGYTGATCELGIDECDPSPCKNGGSCTDLENSYSCTCPPGFYGKICELSAMTCADGPCFNGGRCSDSPDGGYSCRCPVGYSGFNCEKKIDYCSSSPCSNGAKCVDLGDAYLCRCQAGFSGRHCDDNVDDCASSPCANGGTCRDGVNDFSCTCPPGYTGRNCSAPVSRCEHAPCHNGATCHERGHRYVCECARGYGGPNCQFLLPELPPGPAVVDLTEKLEGQGGPFPWVAVCAGVILVLMLLLGCAAVVVCVRLRLQKHRPPADPCRGETETMNNLANCQREKDISVSIIGATQIKNTNKKADFHGDHSADKNGFKARYPAVDYNLVQDLKGDDTAVRDAHSKRDTKCQPQGSSGEEKGTPTTLRGGEASERKRPDSGCSTSKDTKYQSVYVISEEKDECVIATEV
diabetic basement membrane thickening (Col IV) on blocking Notch pathway members [2]: did not impact on the diabetes mediated thickening of the vascular basement membrane
